The values that follow come from patent US4783481A, “Rodenticides” (priority 1983, dated 1988).

The nature of series [1]: Analysis of relative proportions of cis and trans isomers in carcasses of target and non-target species. The settings on record: mixed isomers dosed. The series is classed as in vivo, foxes, cats, hawks, owls and crows. The text has this:
We have now discovered that although there is little to choose between the isomers in terms of their rodenticidal effectiveness there is a significant difference in their persistence in the tissues of nonrodent non-target species which may be exposed to accidental ingestion of brodifacoum.
Species in which this selective depuration has been noted include scavanging and preditor mammals such as foxes and cats, and birds such as hawks, owls and crows. Thus if non-target species such as these consume the carcasses of rodents which have been killed by the use of the invention compositions they will be able to metabolise the residues of the active ingredient and not be at risk through bioaccumulation of a toxic dose by subsequently consuming further contaminated carcasses.

Series [2] is described as follows: Selective depuration of isomer pairs from vole tissue, Example 4. The series is classed as in vivo, meadow voles (Microtus penusylvanicus). The settings on record: for Amount of isomer pair recovered from the tissue / concentration at 24 h / concentration at 48 h / concentration at 72 h / concentration at 96 h / concentration at 120 h: 10 ppm pellets, 0.54 mg/kg of A-D mixture consumed; for half-life / concentration at 24 h / concentration at 48 h / concentration at 72 h / concentration at 96 h / concentration at 120 h: po; for half-life: 0.54 mg/kg, calculated; for half-life / depuration: vole tissue; for depuration: in words; for concentration at 24 h / concentration at 48 h / concentration at 72 h / concentration at 96 h / concentration at 120 h: vole, tissue, read-out: Amount of isomer pair recovered from the tissue; for Ratio: isomers C and D to isomers A and B. As to the method: This Example illustrates the selective depuration of the active ingredient of the invention compositions by meadow voles (Microtus penusylvanicus).
Fasted wild voles were given pellets containing 10 ppm of mixture (approximately 1:1:1:1 by weight) of isomers A, B, C and D of brodifacoum until they had consumed 0.54 mg of active ingredient per kilogram of body weight. Voles were killed at 0, 1, 2, 3, 4, 5 and 14 days after dosing and the relative amounts of the A, B isomer pair and the C, D isomer pair remain in the vole tissue determined by chromatographic means.

The test system of series [3] is pheasants (Phasianus colchicus). It is filed as in vivo. As to conditions: pheasants fed pelleted formulations; vs mixture of all four isomers (approximately 1:1:1:1). An excerpt: (§1) The compositions and methods of the invention may be successfully used to control rodents whilst minimising the hazard to non-target species as compared with the use of known compositions. […] This illustrates the improved safety of the invention compositions in the case of accidental ingestion of rodenticide bait by a non-target species.

The subject of the next series is cats. The experiment in a line: in vivo. It is filed as in vivo. The settings on record: diet simulating contaminated carcase.
Source text: as §1

A short description of the next series: in vivo. As to conditions: cat, in vivo, po; cats; similar diet with corresponding quantity of all four isomers. The series is classed as in vivo.
Source text: as §1

The structures appear in SMILES notation.

As to `O=c1oc2ccccc2c(O)c1[C@H]1C[C@@H](c2ccc(-c3ccc(Br)cc3)cc2)Cc2ccccc21` (relative stereo) [Isomers A and B, reference compound], the “selective depuration / metabolism” value is “not metabolised at a sufficient rate to avoid the lethal consequences” in series [1] and “relatively metabolically more stable” in series [1] (listed as cis isomer). For the same molecule, in series [2] (0 days after dosing), the “Amount of isomer pair recovered from the tissue” value was found to be 0.15 mg/kg. The half-life in series [2] is more than 336 h. The depuration result in series [2] is recorded as “retained in the tissue”. Besides, the concentration at 24 h in series [2] (1 day after dosing) was 147 ng/g. Further, in series [2] (2 days after dosing), the concentration at 48 h is 114 ng/g. The concentration at 72 h in series [2] (3 days after dosing) is 114 ng/g. Moreover, the concentration at 96 h in series [2] (4 days after dosing) amounted to 123 ng/g. Besides, the concentration at 120 h in series [2] (5 days after dosing) was found to be 101 ng/g.

For `O=c1oc2ccccc2c(O)c1[C@@H]1C[C@@H](c2ccc(-c3ccc(Br)cc3)cc2)Cc2ccccc21` (relative stereo) [Isomers C and D], in series [1] (listed as isomers C and D of brodifacoum), the “selective depuration / metabolism” value is listed as “rapid depuration”. For the same molecule, in series [1] (listed as trans isomer), the “selective depuration / metabolism” value was “selective metabolism of most or all of the trans isomer”. Moreover, the survival rate result in series [3] was “much higher survival rate”. The prothrombin time entry with cats was “temporary increase in prothrombin time which returned to normal after a short period”. For the same molecule, in the series with cats (in words), the mortality result is listed as “no mortality”. Also, in series [2] (0 days after dosing), the “Amount of isomer pair recovered from the tissue” value is given as 0.122 mg/kg and the Ratio came out at 0.818. In series [2] (1 day after dosing), the Ratio came to 0.354 and the concentration at 24 h is 52 ng/g. Besides, in series [2] (2 days after dosing), the Ratio turned out to be 0.211 and the concentration at 48 h was determined as 24 ng/g. In series [2] (3 days after dosing), the Ratio worked out at 0.123 and the concentration at 72 h turned out to be 14 ng/g. In series [2] (4 days after dosing), the Ratio is 0.089 and the concentration at 96 h worked out at 11 ng/g. For the same molecule, in series [2] (5 days after dosing), the Ratio was 0.05 and the concentration at 120 h amounted to 5 ng/g. In series [2], the half-life is approximately 24 h and the depuration result was “rapid depuration”.

With `O=c1oc2ccccc2c(O)c1C1CC(c2ccc(-c3ccc(Br)cc3)cc2)Cc2ccccc21` (stereo not drawn) [all four brodifacoum isomers, reference compound], the prothrombin time entry in the series with cats is on record as “increased prothrombin times which did not return to normal”. Also, the mortality in “in vivo” stood at 100%.
